Reference: patent publication US20110190398A1, “USE OF IMMUNOS[…] IN A NEW INDICATION” (NOVARTIS AG, priority 2008, published 2011)
Where a name gives a salt, the structure may show the parent alone.

Columns and labels:
Format in all cases: in vivo, Lewis rats
[1] = system: Experimental Autoimmune Neuritis; assay: Immunohistochemistry of inflammatory cell infiltration in EAN sciatic nerves; conditions: EAN rats, Day 16, 1 mg/kg, sciatic nerve cross-sections, n=5
[2] = system: Experimental Autoimmune Neuritis; assay: EAN clinical score, suppressive treatment; conditions: EAN rats, 1 mg/kg intragastrically once daily from immunization until Day 22; scale 0-10; control maximal 4.80±0.51 at Day 13
Description: (§1) Male Lewis rats (8-10 weeks, 180-200 g, Elevage-Janvier, France) were housed under a 12 h light-12 h dark cycle and with free access to food and water. All animal procedures were in accordance with a protocol approved by the local Administration District Official Committee. All efforts were made to minimize the number of animals and their suffering.
(§2) For EAN induction, rats were immunized by subcutaneous injection into both hind footpads with 100 μL of an inoculum containing 100 μg of synthetic neuritogenic P2 57-81 peptide (GeneScript Corporation, Scotch Plains, N.J., USA). The peptide was dissolved in phosphate buffered saline (PBS) (2 mg/mL) and then emulsified with an equal volume of complete Freund's adjuvant (CFA) containing 2 mg/mL mycobacterium tuberculosis to get a final concentration of 1 mg/mL.
EAN clinical scores were evaluated every day as follows: 0=normal, 1=reduced tonus of tail, 2=limp tail, impaired righting, 3=absent righting, 4=gait ataxia, 5=mild paresis of the hind limbs, 6=moderate paraparesis, 7=severe paraparesis or paraplegia of the hind limbs, 8=tetraparesis, 9=moribund, and 10=death (Zhang et al., 2009A).
Compound A was tested at a concentration of 1 mg/kg (suspended in a water vehicle). The compound A suspension was intragastrically administrated immediately after induction and then once daily until Day 22 (5 rats per group). […]

[3] = system: Experimental Autoimmune Neuritis; assay: Luxol Fast Blue staining, semiquantitative histological score of EAN sciatic nerves; conditions: EAN rats, Day 16, 1 mg/kg in water vehicle, LFB staining of sciatic nerves, scale 0-3
Description: as §1
For EAN induction, rats were immunized by subcutaneous injection into both hind footpads with 100 μL of an inoculum containing 100 μg of synthetic neuritogenic P2 57-81 peptide (GeneScript Corporation, Scotch Plains, N.J., USA). […]
The routine Luxol Fast Blue (LFB) staining was applied to show myelin. […] Briefly, four cross-sections from root and middle level of both sides of EAN rats were analyzed. All perivascular areas present in cross-sections were evaluated by two observers unaware of the treatment, and the degree of pathological alteration was graded semiquantitatively on the following scale: 0=normal perivascular area; 1=mild cellular infiltrate adjacent to the vessel; 2=cellular infiltration plus demyelination in immediate proximity to the vessel; and 3=cellular infiltration and demyelination throughout the section. […]

[4] = system: Experimental Autoimmune Neuritis; assay: Body weight course in EAN rats; conditions: 1 mg/kg once daily, control showed significant weight loss Day 10 to 18
Description: as §1, §2
Compound A was tested at a concentration of 1 mg/kg (suspended in a water vehicle). The compound A suspension was intragastrically administrated immediately after induction and then once daily until Day 22 (5 rats per group). For control EAN rats, the same volume of 1% CMC in water was given.

For CCC(N)(CO)CCc1ccc(Sc2cccc(OCc3ccccc3)c2)cc1Cl (stereo not drawn) [Compound A, 2-amino-4-[4-(3-benzyloxyphenylthio)-2-chlorophenyl]-2-ethylbutane-1-ol hydrochloride], the “Area of immunoreactivity/area of sciatic nerves (%) for B cells (OX22+)” value [1] was under 0.01%, the “Area of immunoreactivity/area of sciatic nerves (%) for Macrophages (ED1+)” value [1] was under 0.05% and the “Area of immunoreactivity/area of sciatic nerves (%) for T cells (W3/13+)” value [1] was under 0.01%. The mean neurological score [2] was under 0.1, the “Mean Histological Score” value [3] was 0.10 and the weight loss [4] was “a reduced level of weight loss was observed from Day 13 to 15”.
